Measurements taken from PubChem BioAssay (NCI).
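Results reflect a 48-hour exposure of cells in 96-well plates to compound at five concentrations. Definition used: TGI = concentration required for complete inhibition of growth.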

Columns and labels:
Experiment in all cases: DTP human tumour cell line panel, 48 h
[1] = tested on: 786-0 renal
[2] = tested on: OVCAR-3 ovarian
[3] = tested on: SK-MEL-2 melanoma
[4] = tested on: HOP-18 NSCLC
[5] = tested on: SNB-78 CNS
[6] = tested on: SK-OV-3 ovarian
[7] = tested on: MALME-3M melanoma
[8] = tested on: OVCAR-8 ovarian
[9] = tested on: KM20L2 colon
[10] = tested on: SN12C renal
[11] = tested on: SNB-19 CNS
[12] = tested on: M19-MEL melanoma
[13] = tested on: SK-MEL-5 melanoma
[14] = tested on: HOP-62 NSCLC
[15] = tested on: HL-60(TB) leukemia
[16] = tested on: KM12 colon
[17] = tested on: MOLT-4 leukemia
[18] = tested on: ACHN renal
[19] = tested on: SF-295 CNS
[20] = tested on: RPMI-8226 leukemia
[21] = tested on: NCI-H23 lung
[22] = tested on: SK-MEL-28 melanoma
[23] = tested on: HT29 colon
[24] = tested on: UACC-257 melanoma
[25] = tested on: UACC-62 melanoma
[26] = tested on: EKVX NSCLC
[27] = tested on: CCRF-CEM leukemia
[28] = tested on: SF-539 CNS
[29] = tested on: DMS 114 small cell lung
[30] = tested on: RXF 393 renal
[31] = tested on: SNB-75 CNS
[32] = tested on: A549 NSCLC
[33] = tested on: HOP-92 NSCLC
[34] = tested on: SW-620 colon
[35] = tested on: COLO 205 colon
[36] = tested on: HCT-116 colon
[37] = tested on: U251 CNS
[38] = tested on: UO-31 renal
[39] = tested on: IGROV1 ovarian
[40] = tested on: LXFL 529 NSCLC
[41] = tested on: SF-268 CNS
[42] = tested on: NCI-H460 lung
[43] = tested on: K-562 leukemia
[44] = tested on: M14 melanoma
[45] = tested on: OVCAR-4 ovarian
[46] = tested on: HCC-2998 colon
[47] = tested on: DLD-1 colon
[48] = tested on: NCI-H226 lung
[49] = tested on: TK-10 renal
[50] = tested on: A498 renal
[51] = tested on: HCT-15 colon
[52] = tested on: OVCAR-5 ovarian
[53] = tested on: NCI-H522 lung
[54] = tested on: SR leukemia
[55] = tested on: XF 498 CNS
[56] = tested on: DMS 273 small cell lung
[57] = tested on: CAKI-1 renal
[58] = tested on: LOX IMVI melanoma

Measured: TGI

COc1cc(-c2c(C)c(C)nc(OC)c2C#N)cc(OC)c1OC
not listed: [52] | [53] | [54] | [55] | [56] | [57] | [58]
> 100 µM: all other assays above

CC1C2=CC=C(O2)C(C)(C)C2=CC=C(O2)C(C)(C)C2=CC=C(O2)C(C)(C)C2=CC=C1O2
not listed: [2] | [13] | [20] | [25] | [29] | [31] | [38] | [44] | [47]
> 100 µM: all other assays above
